Experimental data as given in ChEMBL document CHEMBL3885861, “Open TG-GATES”.

Organism: Rattus norvegicus
Experiment: Open TG-GATES - Regimen: Single
Type: toxicity, organism-based, Sprague-Dawley
Parameters: regimen Single, gender Male, age 6 weeks
Conditions: in vivo, ip, 120 mg/kg, route intraperitoneal injection, dose level Middle; for APTT / Bas / Eos / Fbg / Hb / Ht / Lym / MCH / MCHC / MCV / Mono / Neu / PT / Plat / RBC / Ret / WBC: tissue Blood; for KIDNEY_L / KIDNEY_R / KIDNEY_TOTAL: tissue Kidney; for LIVER: tissue Liver; for A/G / ALP / ALT / AST / BUN / CRE / Ca / Cl / DBIL / GLC / IP / K / LDH / Na / PL / RALB / TBIL / TC / TG / TP / gamma-GTP: tissue Plasma

## CC(C)=CC(=O)C=C(C)C [PHORONE]
3 h
  TERMINAL_BW: 223.2 g
  APTT: 16.6 s
  Bas: 0%
  Eos: 0.8%
  Fbg: 219.8 mg/dL
  Hb: 13.8 g/dL
  Ht: 41%
  Lym: 74.4%
  MCH: 21.7 pg
  MCHC: 33.5%
  MCV: 64.6 fL
  Mono: 8.4%
  Neu: 16.2%
  PT: 12.2 s
  Plat: 124.2 x10_4/uL
  RBC: 635.4 x10_4/ul
  Ret: 8.8%
  WBC: 65.2 x10_2/uL
  KIDNEY_L: 1 g
  KIDNEY_R: 1 g
  KIDNEY_TOTAL: 2 g
  LIVER: 10.2 g
  A/G: 2.2
  ALP: 897.8 IU/L
  ALT: 34.6 IU/L
  AST: 76.2 IU/L
  BUN: 15.2 mg/dL
  CRE: 0.6 mg/dL
  Ca: 11.2 mg/dL
  Cl: 103 meq/L
  DBIL: 0.038 mg/dL
  GLC: 213.4 mg/dL
  IP: 10.1 mg/dL
  K: 5.1 meq/L
  LDH: 79.8 IU/L
  Na: 137.2 meq/L
  PL: 132.6 mg/dL
  RALB: 3.6 g/dL
  TBIL: 0.6 mg/dL
  TC: 79 mg/dL
  TG: 50.8 mg/dL
  TP: 5.3 g/dL
  gamma-GTP: 1.2 IU/L
6 h
  TERMINAL_BW: 221.7 g
  APTT: 17.1 s
  Bas: 0%
  Eos: 1%
  Fbg: 220.6 mg/dL
  Hb: 13.7 g/dL
  Ht: 41.3%
  Lym: 75.6%
  MCH: 21.7 pg
  MCHC: 33.1%
  MCV: 65.4 fL
  Mono: 4.4%
  Neu: 19.2%
  PT: 12.2 s
  Plat: 114 x10_4/uL
  RBC: 633.2 x10_4/ul
  Ret: 8.5%
  WBC: 102.3 x10_2/uL
  KIDNEY_L: 1 g
  KIDNEY_R: 1 g
  KIDNEY_TOTAL: 2 g
  LIVER: 9.9 g
  A/G: 1.9
  ALP: 687.6 IU/L
  ALT: 34.4 IU/L
  AST: 71 IU/L
  BUN: 15 mg/dL
  CRE: 0.4 mg/dL
  Ca: 10.7 mg/dL
  Cl: 104.2 meq/L
  DBIL: 0.032 mg/dL
  GLC: 194.4 mg/dL
  IP: 9.5 mg/dL
  K: 4.7 meq/L
  LDH: 81.6 IU/L
  Na: 138 meq/L
  PL: 130.6 mg/dL
  RALB: 3.6 g/dL
  TBIL: 0.5 mg/dL
  TC: 80 mg/dL
  TG: 29 mg/dL
  TP: 5.5 g/dL
  gamma-GTP: 2 IU/L
9 h
  TERMINAL_BW: 216.1 g
  APTT: 16.6 s
  Bas: 0%
  Eos: 0.8%
  Fbg: 229.2 mg/dL
  Hb: 13.4 g/dL
  Ht: 40.4%
  Lym: 72.6%
  MCH: 21.7 pg
  MCHC: 33.1%
  MCV: 65.5 fL
  Mono: 6.6%
  Neu: 20%
  PT: 12.1 s
  Plat: 113.6 x10_4/uL
  RBC: 617.2 x10_4/ul
  Ret: 8.9%
  WBC: 90 x10_2/uL
  KIDNEY_L: 1 g
  KIDNEY_R: 1 g
  KIDNEY_TOTAL: 2 g
  LIVER: 8.9 g
  A/G: 2.2
  ALP: 717.4 IU/L
  ALT: 31 IU/L
  AST: 66.8 IU/L
  BUN: 11.2 mg/dL
  CRE: 0.5 mg/dL
  Ca: 10.7 mg/dL
  Cl: 106.2 meq/L
  DBIL: 0.058 mg/dL
  GLC: 202.6 mg/dL
  IP: 10 mg/dL
  K: 4.7 meq/L
  LDH: 89.8 IU/L
  Na: 138.4 meq/L
  PL: 128 mg/dL
  RALB: 3.7 g/dL
  TBIL: 0.4 mg/dL
  TC: 74.2 mg/dL
  TG: 43.8 mg/dL
  TP: 5.4 g/dL
  gamma-GTP: 1.6 IU/L
24 h
  TERMINAL_BW: 229.2 g
  APTT: 16.9 s
  Bas: 0%
  Eos: 0.8%
  Fbg: 244 mg/dL
  Hb: 12.9 g/dL
  Ht: 39.2%
  Lym: 75.4%
  MCH: 21.3 pg
  MCHC: 32.9%
  MCV: 64.7 fL
  Mono: 6.8%
  Neu: 17.2%
  PT: 11.7 s
  Plat: 121.5 x10_4/uL
  RBC: 606.2 x10_4/ul
  Ret: 8.1%
  WBC: 94.9 x10_2/uL
  KIDNEY_L: 1.1 g
  KIDNEY_R: 1.1 g
  KIDNEY_TOTAL: 2.2 g
  LIVER: 11.9 g
  A/G: 2.1
  ALP: 860.6 IU/L
  ALT: 34.4 IU/L
  AST: 58.2 IU/L
  BUN: 15.8 mg/dL
  CRE: 0.5 mg/dL
  Ca: 10.9 mg/dL
  Cl: 103.6 meq/L
  DBIL: 0.03 mg/dL
  GLC: 194.8 mg/dL
  IP: 7.7 mg/dL
  K: 4.6 meq/L
  LDH: 176.4 IU/L
  Na: 139.2 meq/L
  PL: 148 mg/dL
  RALB: 3.7 g/dL
  TBIL: 0.4 mg/dL
  TC: 77.2 mg/dL
  TG: 106.2 mg/dL
  TP: 5.6 g/dL
  gamma-GTP: 0.6 IU/L
